Test results published in patent US9688661B2, “Substituted pyrroles active as kinases inhibitors” (NERVIANO MEDICAL SCIENCES S.R.L., priority 2012, dated 2017).
Read-outs that look alike come from different tables or passages of the source.

Legend:
[1] = tested on: JAK2 dependent human megakaryoblastic leukemia cell line SET-2; assay: Cell proliferation assay, SET-2; type: cell-based; details: SET-2 cells, 72 hours, CellTiter-Glo
[2] = tested on: IL-2 dependent human T lymphoma cell line DERL-7; assay: Cell proliferation assay, DERL-7; type: cell-based; details: DERL-7 cells, 20 ng/ml human IL-2, 72 hours, CellTiter-Glo
Description: the JAK2 dependent human megakaryoblastic leukemia cell line SET-2 (DSMZ, Braunschweig GERMANY), and JAK2 independent human chronic myelogenous leukaemia cell line K562 (ECACC, Wiltshire, UK) were cultured in RPMI-1640 medium-Glutamax (Gibco BRL, Gaithesburg, Md., USA), supplemented with 10% fetal bovine serum (FBS) at 37° C. and 5% CO2. The IL-2 dependent human T lymphoma cell line DERL-7 (DSMZ, Braunschweig GERMANY) was used to test the activity of compounds in cells on JAK1/JAK3 kinases activated by IL-2. The DERL-7 cell lines were cultured in RPMI-1640 medium-Glutamax (Gibco BRL, Gaithesburg, Md., USA), supplemented with 20% FBS and 20 ng/ml of human IL-2 (Sigma-Aldrich, St. Louis, Mo., USA).
Approximately 5×10^3 cells were plated into 384 microtiter plate wells in 50 μL of growth media with different concentrations of inhibitors. The cells were incubated at 37° C. and 5% CO2 for 72 hours, than the plates were processed using CellTiter-Glo assay (Promega, Madison, Wis., USA) following the manufacturer's instruction. Briefly 25 μL/well reagent solution are added to each wells and after 5 minutes shacking micro-plates are read by Envision luminometer (PerkinElmer, Waltham, Mass., USA).
(§1) Data are analyzed by Symix Assay Explorer software (Symix Technologies Inc.) that provides sigmoidal fitting algorithm of the 8 points dilutions curves for IC50 determination.

JAK2 kinase domain = JAK2 kinase domain (Homo sapiens (Human), UniProt O60674); assay: Biochemical assay for inhibitors of JAK kinase activity, JAK2; details: JAK2 kinase domain 1 nM, 60 μM ATP
JAK2 kinase domain, sequence (O60674 849-1124): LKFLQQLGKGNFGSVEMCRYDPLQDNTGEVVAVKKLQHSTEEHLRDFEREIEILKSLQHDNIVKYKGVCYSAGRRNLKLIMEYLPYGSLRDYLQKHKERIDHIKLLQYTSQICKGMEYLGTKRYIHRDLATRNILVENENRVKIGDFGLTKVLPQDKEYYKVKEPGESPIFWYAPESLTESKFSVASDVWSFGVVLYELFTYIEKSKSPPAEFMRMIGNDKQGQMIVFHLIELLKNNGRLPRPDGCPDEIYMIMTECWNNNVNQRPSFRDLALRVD
Description: (§2) Specific JAK2, JAK1 or JAK3 peptide substrates are trans-phosphorylated by JAK kinases in the presence of ATP traced with 33P-γ-ATP. At the end of the phosphorylation reaction, the unreacted ATP, cold and radioactive, is captured by an excess of dowex ion exchange resin that eventually settles by gravity to the bottom of the reaction plate. The supernatant is subsequently withdrawn and transferred into a counting plate that is then evaluated by β-counting.
(§3) 500 g of wet resin (SIGMA, custom prepared resin DOWEX 1×8 200-400 mesh, 2.5 Kg) are weighed out and diluted 2 to 1 in 150 mM sodium formate, pH 3.00. The resin is allowed to settle down overnight and then the supernatant is discarded. After three washes as above over a couple of days, the resin is allowed to settle and two volumes (with respect to the resin volume) of 150 mM sodium formate buffer are added.
(§4) Kinase buffer was composed of 50 mM HEPES pH 7.5 containing 10 mM MgCl2, 2.5 mM DTT, 10 μM Na3VO4 and 0.2 mg/mL BSA.
(§5) The peptidic substrate was purchased from American Peptide Company (Sunnyvale, Calif.).
as §1

[3] = tested on: JAK2 independent human chronic myelogenous leukaemia cell line K562; assay: Cell proliferation assay, K562; type: cell-based; details: K562 cells, 72 hours, CellTiter-Glo, read-out: IC50 K-562
TYK2 kinase domain = TYK2 kinase domain (Homo sapiens (Human), UniProt P29597); assay: Biochemical assay for inhibitors of JAK kinase activity, TYK2; details: TYK2 kinase domain 3 nM, 31 μM ATP
TYK2 kinase domain, sequence (P29597 833-1187): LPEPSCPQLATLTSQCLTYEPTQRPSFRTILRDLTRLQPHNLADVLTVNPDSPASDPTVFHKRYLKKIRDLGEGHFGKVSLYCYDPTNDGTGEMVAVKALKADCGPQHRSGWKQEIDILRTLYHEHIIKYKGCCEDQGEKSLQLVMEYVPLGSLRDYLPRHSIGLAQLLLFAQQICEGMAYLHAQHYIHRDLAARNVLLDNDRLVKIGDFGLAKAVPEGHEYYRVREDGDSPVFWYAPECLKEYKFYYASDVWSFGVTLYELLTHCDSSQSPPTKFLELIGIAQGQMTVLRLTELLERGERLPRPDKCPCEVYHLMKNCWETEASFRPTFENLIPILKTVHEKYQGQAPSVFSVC
Description: as §2, §3, §4, §5, §1

JAK1 kinase domain = JAK1 kinase domain (Homo sapiens (Human), UniProt P23458); assay: Biochemical assay for inhibitors of JAK kinase activity, JAK1; details: preactivated JAK1 kinase domain 2.5 nM, 100 μM ATP
JAK1 kinase domain, sequence (P23458 861-1152): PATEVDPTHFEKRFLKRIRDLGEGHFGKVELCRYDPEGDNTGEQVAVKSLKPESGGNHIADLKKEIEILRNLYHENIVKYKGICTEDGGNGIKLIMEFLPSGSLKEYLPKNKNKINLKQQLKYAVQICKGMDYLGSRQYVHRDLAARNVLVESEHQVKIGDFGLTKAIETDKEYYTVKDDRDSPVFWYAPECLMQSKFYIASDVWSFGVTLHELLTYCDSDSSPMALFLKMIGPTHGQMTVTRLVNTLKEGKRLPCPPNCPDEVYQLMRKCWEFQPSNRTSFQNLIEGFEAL
Description: as §2, §3, §4
Assays were performed with the JAK1 kinase domain (residues 861-1152 of the 1154 amino acid long full-length sequence, accession number P23458 of UniProtKB/Swiss-Prot database).
The JAK1 kinase domain was preactivated with ATP for 1 h at 28° C. in order to obtain a linear kinetic.
as §5, §1

Row | SMILES | IC50 [1] [nM] | IC50 ([2]; DERL7) [nM] | IC50 (JAK2 kinase domain) [nM] | IC50 [3] [nM] | IC50 (TYK2 kinase domain) [nM] | IC50 (JAK1 kinase domain) [nM] | IC50 ([2]; read-out: DERL7 IC50) [nM]
1 | Cc1ccc(Cl)cc1-c1cn(-c2ncnc3[nH]ccc23)cc1C(N)=O [compd 270, 4-(5-Chloro-2-methylphenyl)-1-(7H-pyrrolo[2,3-d]pyrimidin-4-yl)-1H-pyrrole-3-carboxamide] | 550 | 1790 | 17 | 1890 | 43 | 85 | –
2 | CCc1ccc(Cl)cc1-c1cc(-c2ncnc3[nH]ccc23)[nH]c1C(=O)NC [compd 130, 3-(5-Chloro-2-ethylphenyl)-N-methyl-5-(7H-pyrrolo[2,3-d]pyrimidin-4-yl)-1H-pyrrole-2-carboxamide] | 400 | 1600 | 3 | > 10000 | 7 | 11 | –
3 | CCc1ccc(Cl)cc1-c1[nH]c(-c2cc(NC)ncn2)cc1C(N)=O [compd 198, 2-(5-Chloro-2-ethylphenyl)-5-[6-(methylamino)pyrimidin-4-yl]-1H-pyrrole-3-carboxamide] | 190 | 170 | 2 | > 10000 | 23 | 8 | –
4 | CCc1ccc(C(F)(F)F)cc1-c1[nH]c(-c2ncnc3[nH]ccc23)cc1C(N)=O [compd 220, 2-[2-Ethyl-5-(trifluoromethyl)phenyl]-5-(7H-pyrrolo[2,3-d]pyrimidin-4-yl)-1H-pyrrole-3-carboxamide] | 150 | 591 | 2 | 6870 | 20 | 19 | –
5 | CCc1ccc(Cl)cc1-c1[nH]c(-c2cc(NC)ncn2)cc1C#N [compd 10, 2-(5-Chloro-2-ethylphenyl)-5-[6-(methylamino)pyrimidin-4-yl]-H-pyrrole-3-carbonitrile] | – | – | – | – | – | – | 780
6 | CCc1ccc(C(F)(F)F)cc1-c1[nH]c(-c2ncnc3[nH]ccc23)cc1C(=O)NC [compd 323, 2-[2-Ethyl-5-(trifluoromethyl)phenyl]-N-methyl-5-(7H-pyrrolo[2,3-d]pyrimidin-4-yl)-1H-pyrrole-3-carboxamide] | 220 | 510 | 3 | > 10000 | 22 | 6 | –
7 | CCc1ccc(C(F)(F)F)cc1-c1[nH]c(-c2cc(NC)ncn2)cc1C(=O)NC [compd 322, 2-[2-Ethyl-5-(trifluoromethyl)phenyl]-N-methyl-5-[6-(methylamino)pyrimidin-4-yl]-1H-pyrrole-3-carboxamide] | 220 | 246 | 4 | 2800 | – | 13 | –

Continued, in another order:

Row | IC50 [1] [nM] | IC50 ([2]; DERL7) [nM] | IC50 (JAK2 kinase domain) [nM] | IC50 [3] [nM] | IC50 (TYK2 kinase domain) [nM] | IC50 (JAK1 kinase domain) [nM] | SMILES | IC50 ([2]; read-out: DERL7 IC50) [nM]
8 | 30 | 18 | 1 | > 10000 | – | – | CCc1ccc(Cl)cc1-n1cc(-c2ncnc3[nH]ccc23)cc1C(N)=O [compd 237, 1-(5-Chloro-2-ethylphenyl)-4-(7H-pyrrolo[2,3-d]pyrimidin-4-yl)-1H-pyrrole-2-carboxamide] | –
9 | 80 | 463 | 1 | > 10000 | 2 | 3 | Cc1ccc(Cl)cc1-n1cc(-c2ncnc3[nH]ccc23)cc1C(N)=O [compd 229, 1-(5-Chloro-2-methylphenyl)-4-(7H-pyrrolo[2,3-d]pyrimidin-4-yl)-1H-pyrrole-2-carboxamide] | –
10 | 340 | 332 | 6 | 4130 | 12 | 14 | CCc1ccc(Cl)cc1-n1cc(-c2ncnc3[nH]ccc23)cc1C#N [compd 68, 1-(5-Chloro-2-ethylphenyl)-4-(7H-pyrrolo[2,3-d]pyrimidin-4-yl)-1H-pyrrole-2-carbonitrile] | –
11 | 330 | 1070 | 4 | 9660 | 9 | 18 | CCc1ccc(Cl)cc1-c1cc(-c2ncnc3[nH]ccc23)[nH]c1C(N)=O [compd 124, 3-(5-Chloro-2-ethylphenyl)-5-(7H-pyrrolo[2,3-d]pyrimidin-4-yl)-1H-pyrrole-2-carboxamide] | –
